According to US11583524B2, “Inhibitors of the interaction between MDM2 and P53” (Janssen Pharmaceutica NV, priority 2007, dated 2023):
Where a name gives a salt, the structure may show the parent alone.

What was measured:
[1] = test system: A2780 ovarian cancer cells; assay: Alamar Blue cell proliferation assay, A2780; format: cell-based, human; settings: 4-day incubation; for IC50: Homo sapiens, 96 h, read-out: A2780 cell proliferation inhibition pIC50 (converted)
Protocol: Cellular activity of the compounds of formula (I) was determined on A2780 tumour cells using a colorimetric assay for cell toxicity or survival (see example C.2).
The human A2780 ovarian cancer cells were a kind gift from Dr. T. C. Hamilton (Fox Chase Cancer Centre, Pennsylvania, U.S.A.). The cells were cultured in RPMI 1640 medium supplemented with 2 mM L-Glutamine, 50 μg/ml gentamicin and 10% fetal calf serum.
(§1) Resazurin was purchased from Aldrich (Prod. No. 199303). Potassium ferrocyanide, potassium ferricyanide, KH2PO4 and K2HPO4 were purchased from Sigma (Prod. Nos. P9387, P8131, P5655 and P8281, respectively).
(§2) Potassium Phosphate Buffer 0.1 M (PPB) was made as follows: 2.72 gram KH2PO4 and 13.86 gram K2HPO4 were dissolved in 500 ml milli-Q H2O, the pH was adjusted to pH 7.4 and the volume was brought to 1 litre with milli-Q H2O; the buffer was filter sterilised and stored at room temperature. Resazurin stock solution (PPB-A) was prepared fresh by dissolving 45 mg resazurin in 15 ml PBS. 30 mM potassium ferricyanide (PPB-B) was prepared by dissolving 0.987 gram potassium ferricyanide in 100 ml PPB. 30 mM potassium ferrocyanide (PPB-C) was prepared by dissolving 1.266 gram potassium ferrocyanide in 100 ml PPB.
(§3) Mixture of PPB-A, PPB-B and PPB-C was prepared by mixing equal volumes of the respective solutions. Resazurin work solution (herein termed “Alamar Blue” solution) was prepared by diluting said mixture 20×(vol/vol) in PPB and filter sterilising; the Alamar Blue solution could be kept at 4° C. for a maximum of 2 weeks.
(§4) For experiments in 384 wells plates the cells were seeded at a density of 5×10^3 cells/ml in Falcon 384-well culture plates (Life Technologies, Merelbeke, Belgium), black with clear bottom, in 45 μl culture medium. Cells were allowed to adhere to plastic for 24 hr. The tested compound was pre-diluted (1/50 in culture medium) and 5 μl pre-diluted compound was added to the wells. Following 4-day incubation, 10 μl of the Alamar Blue solution was added to each well and the cells were further incubated for 5 hrs (A2780) or 6 hrs (U87MG) at 37° C. The fluorescence intensity was measured for each well with a Fluorescence plate reader (Fluorskan, Labsystems, 540 nm excitation and 590 nm emission)
(§5) The antiproliferative activity was calculated as percentage of remaining viable cells in treated versus control (untreated cells) conditions. Within an experiment, the result for each experimental condition is the mean of 3 replicate wells. When appropriate, the experiments were repeated to establish full concentration-response curves. When appropriate, IC50-values (concentration of the drug, needed to reduce cell growth to 50% of the control) were computed using probit analysis for graded data (Finney, D. J., Probit Analyses, 2nd Ed. Chapter 10, Graded Responses, Cambridge University Press, Cambridge 1962). Herein the effects of test compounds are expressed as pIC50 (the negative log value of the IC50-value) (see Table 4).

p53 in A2780 cells = assay: p53 ELISA (preservation of p53 in A2780 cells); format: cell-based, human; settings: lowest dose giving at least 140% of the p53 value in the control, 16 hours treatment; for minimal effective concentration: Homo sapiens, read-out: p53-elisa LAD
Protocol: The capacity of the compounds to preserve p53 in A2780 cells was measured with the p53 enzyme linked immunosorbent assay (ELISA). The p53 assay is a “sandwich” enzyme immunoassay employing two polyclonal antibodies. A polyclonal antibody, specific for the p53 protein, has been immobilized onto the surface of the plastic wells. Any p53 present in the sample to be assayed will bind to the capture antibody. The biotinylated detector polyclonal antibody also recognizes p53 protein, and will bind to any p53, which has been retained by the capture antibody. The detector antibody, in turn, is bound by horseradish peroxidase-conjugated streptavidin. The horseradish peroxidase catalyses the conversion of the chromogenic substrate o-phenylene diamine, the intensity of which is proportional to the amount of p53 protein bound to the plate. The coloured reaction product is quantified using a spectrophotometer. Quantitation is achieved by the construction of a standard curve using known concentrations of purified recombinant HIS tagged p53 protein (see example C.1).
A2780 cells (ATCC) were cultivated in RPMI 1640 supplemented with 10% fetal calf serum (FCS), 2 mM L-glutamine and gentamycin at 37° C. in a humidified incubator with 5% CO2.
A2780 cells were seeded at 20.000 cells per well in a 96 well plate, cultured for 24 hours and treated with compound for 16 hours at 37° C. in a humidified incubator. After incubation, the cells were washed once with phosphate-buffered saline and 30 μl, per well, low salt RIPA buffer (20 mM tris, pH7.0, 0.5 mM EDTA, 1% Nonidet P40, 0.5% DOC, 0.05% SDS, 1 mM PMSF, 1 μg/ml aprotinin and 0.5 μ/ml leupeptin) was added. Plates were placed on ice for 30 minutes to complete the lysis. p53 protein was detected in de lysates by using the sandwich ELISA, described below.
High binding polystyrene EIA/RIA 96 well plates (Costar 9018) were coated with the capture antibody pAb1801 (Abcam ab28-100) at a concentration of 1 μg/ml in coating buffer (0.1 M NaHCO3 pH8.2), 50 μl per well. The antibody was allowed to adhere overnight at 4° C. Coated plates were washed once with phosphate-buffered saline (PBS)/0.05% Tween 20 and 300 μl of blocking buffer (PBS, 1% bovine serum albumins (BSA)) was added, for an incubation period of 2 hours at room temperature. Dilutions of purified recombinant HIS tagged p53 protein, ranging from 3-200 ng/ml, were made in blocking buffer and used as standards.
Plates were washed twice with PBS/0.05% Tween 20 and blocking buffer or standards were added at 80 μl/well. To the standards, 20 μl of lysis buffer was added. The samples were added to the other wells at 20 μl lysate/well. After an overnight incubation at 4° C., plates were washed twice with PBS/0.05% Tween 20. Aliquots of 100 μl secondary polyclonal antibody p53(FL-393) (Tebubio, sc-6243) at a concentration of 1 μg/ml in blocking buffer were added to each well and allowed to adhere for 2 hours at room temperature. Plates were washed three times with PBS/0.05% Tween 20. Detection antibody anti-rabbit HRP (sc-2004, Tebubio) at 0.04 μg/ml in PBS/1% BSA was added and incubated for 1 hour at room temperature. Plates were washed three times with PBS/0.05% Tween 20 and 100 μl of substrate buffer was added (substrate buffer was prepared shortly before use by adding 1 tablet of 10 mg o-phenylene diamine (OPD) from Sigma and 125 μl 3% H2O2 to 25 ml OPD buffer: 35 mM citric acid, 66 mM Na2HPO4, pH5.6). After 5 to 10 minutes, colour reaction was stopped by adding 50 μl stop buffer (1 M H2SO4) per well. The absorbance at dual wavelengths of 490/655 nm was measured using a Biorad micro plate reader and the results were then analyzed.
For each experiment, controls (containing no drug) and a blank incubation (containing no cells or drugs) were run in parallel. The blank value was subtracted from all control and sample values. For each sample, the value of p53 (in absorbance units) was expressed as the percentage of the value for p53 present in the control. […]

U87MG glioma cells = assay: Alamar Blue cell proliferation assay, U87MG; format: cell-based, human; settings: 4-day incubation; for IC50: Homo sapiens, U-87 MG, 96 h, read-out: U87MG cell proliferation inhibition pIC50 (converted)
Protocol: The human U87MG glioma cells were cultured in DMEM medium supplemented with 2 mM L-Glutamine, 1 mM Sodium Pyruvate, 1.5 g/L Sodium Bicarbonate, 50 μg/ml gentamicin and 10% heat inactivated fetal calf serum. (U87MG cells are human glioblastoma cells with wild type p53. In this cell line MDM2 tightly controls p53 expression).
as §1, §2, §3, §4, §5

| Structure (SMILES) | melting point [°C] | IC50 [1] [µM] | minimal effective concentration (p53 in A2780 cells) [µM] | IC50 (U87MG glioma cells) [µM] | A2780 cell proliferation inhibition pIC50 [1] | p53-elisa LAD (p53 in A2780 cells) [µM] | U87MG cell proliferation inhibition pIC50 (U87MG glioma cells) |
| --- | --- | --- | --- | --- | --- | --- | --- |
| COc1ccc2c(CCNc3c(Cl)cc(Nc4ccnc5ccccc45)cc3Cl)c[nH]c2c1 [Compound 31] | 175 | ~2.57 | 1 | 1.32 |  |  |  |
| Cc1cc(Nc2ccnc3c2CCC3O)c(Cl)cc1NCCc1c[nH]c2c(C)cccc12 (centres unmarked) [Compound 10] | 237 | 3.55 | 1 | 2.82 |  |  |  |
| OCc1cc(Nc2cc(Cl)c(NCCc3c[nH]c4ccccc34)c(Cl)c2)ccn1 [Compound 24] | 115 | > 10 | > 10 | > 10 |  |  |  |
| Cl.N#Cc1c(NCCc2c[nH]c3ccccc23)ccc(Nc2ccncc2)c1N1CCOCC1 [Compound 55] | 245 | > 10 | > 10 | > 10 |  |  |  |
| OCc1cc(NCCc2c[nH]c3ccccc23)c(Br)cc1Nc1ccnc2ccccc12 [Compound 53] | 192 | > 10 | > 10 | 3.98 |  |  |  |
| Cc1c(NCCc2c[nH]c3ccccc23)ccc(Nc2ccncc2)c1C [Compound 1] | 186 | > 10 | > 10 | > 10 |  |  |  |
| Cc1c(NCCc2c[nH]c3ccccc23)ccc(Nc2ccnc(CO)c2)c1C [Compound 2] | 163 | > 10 | 3 | 7.76 |  |  |  |
| OCc1cc(Nc2cc(F)c(NCCc3c[nH]c4ccccc34)c(F)c2)ccn1 (as salt: hydrochloric acid salt) [Compound 14] | 110 |  |  |  |  |  |  |
| OC1CCc2c(Nc3cc(C(F)(F)F)c(NCCc4c[nH]c5ccccc45)c(C(F)(F)F)c3)ccnc21 (centres unmarked) [Compound 5] | 178 | > 10 | 0.3 | > 10 |  |  |  |
| CC(=O)Nc1cc(NCCc2c[nH]c3ccccc23)c(F)cc1Nc1ccncc1 [Compound 50] | 241 | > 10 | > 10 | > 10 |  |  |  |
| Cc1cc(Nc2ccnc3c2CCC3O)c(Cl)cc1NCCc1c[nH]c2ccccc12 (centres unmarked) [Compound 9] | 207 | 4.17 | > 10 | > 10 |  |  |  |
| FC(F)(F)c1cc(Nc2ccncc2)cc(C(F)(F)F)c1NCCc1c[nH]c2ccccc12 [Compound 3] | 187 | > 10 | > 10 | > 10 |  |  |  |
| OC1CCc2c(Nc3cc(F)c(NCCc4c[nH]c5ccccc45)c(F)c3)ccnc21 (centres unmarked) [Compound 17] | 147 | 8.32 | 1 | 6.92 |  |  |  |
| c1ccc2c(CCNc3ccc(Nc4ccncc4)c4ccccc34)c[nH]c2c1 [Compound 6] | 166 | > 10 | 1 | 1.58 |  |  |  |
| Clc1cc(Nc2ccncc2)cc(Cl)c1NCCc1c[nH]c2ccccc12 [Compound 20] |  |  |  |  | <5 | >10.0 | <5 |
| Fc1cc(Nc2ccncc2)cc(F)c1NCCc1c[nH]c2ccccc12 [Compound 11] | 164 | > 10 | > 10 | 4.9 |  |  |  |
| COc1ccc2c(CCNc3c(F)cc(Nc4ccncc4)cc3F)c[nH]c2c1 [Compound 13] |  |  |  |  | <5 | >10.0 | 5.18 |
| Cc1[nH]c2ccccc2c1CCNc1c(Cl)cc(Nc2ccnc(CO)c2)cc1Cl [Compound 25] | 186 | > 10 | 3 | > 10 |  |  |  |
| C=C(C)c1cccc2c(CCNc3ccc(Nc4ccnc5c4CCC5O)c(OC)c3F)c[nH]c12 (centres unmarked) [Compound 64] |  | 0.0851 | 0.3 | 0.339 |  |  |  |
| Cc1cccc2c(CCNc3c(Cl)cc(Nc4ccncc4)cc3Cl)c[nH]c12 [Compound 21] |  |  |  |  | <5 | >10.0 | <5 |
| COc1c(Nc2ccnc3c2CCC3O)ccc(NCCc2c[nH]c3c(OC)cccc23)c1F (centres unmarked) [Compound 49] | 123 | 0.501 | 1 | 0.646 |  |  |  |
| Cc1cccc2c(CCNc3c(Cl)cc(Nc4ccnc5ccccc45)cc3Cl)c[nH]c12 [Compound 30] |  |  |  |  | 5.08 | 1.0 | 5.06 |
